Data: patent publication US9393221B2, “Methods and compounds for reducing intracellular lipid storage” (THE GENERAL HOSPITAL CORPORATION, priority 2011, dated 2016)
Structures can show the parent of a compound that is named as a salt.

system: ATGL-KO iPSCs; assay: High throughput iPSC chemical screening, Oil Red O (ORO) lipid accumulation; assay type: cell-based, mouse; conditions: not given; note: test concentration or dose not given here

Compound `CC(C)c1cccc(C(C)C)c1O` [Propofol] has a Z-score of −0.9649.

same assay, conditions: normalized ORO level vs DMSO-treated cells; compound present during 7 days differentiation, 96-well; negative = decrease in lipid accumulation

Compared with `CCCN(CCC)C(=O)C(CCC(=O)O)NC(=O)c1ccccc1` (centres unmarked) [Proglumide], `CCOC(=O)[C@H](CCc1ccccc1)N[C@@H](C)C(=O)N1[C@H](C(=O)O)C[C@@H]2CCC[C@@H]21` [Ramipril] is higher in Z-score: 0.1235 for the first, 1.188 for the second.

Going from `[H]/N=C(\N/C(=N/[H])Nc1ccc(Cl)cc1)NC(C)C` [Proguanil hydrochloride] to `CC(C)Cc1ccc([C@H](C)C(=O)O)cc1` [S-(+)-ibuprofen], the Z-score falls from 16.0329 to −1.4076.

Compared with `CN(C)CCCN1c2ccccc2Sc2ccccc21` [Promazine hydrochloride], `CC(CN1c2ccccc2Sc2ccccc21)N(C)C` (centres unmarked) [Promethazine hydrochloride] is lower in Z-score: 0.01386 for the first, −1.4251 for the second.

Compared with `CC(C)NCC(O)c1ccc2ccccc2c1` (centres unmarked) [Pronethalol hydrochloride], `CC(C)NCC(O)COc1cccc2ccccc12` (centres unmarked) [Propranolol hydrochloride] is higher in Z-score: −0.9002 for the first, 2.05 for the second.

Going from `CCCNCC(O)COc1ccccc1C(=O)CCc1ccccc1` (centres unmarked) [Propafenone hydrochloride] to `CC(=O)SCC(Cc1ccccc1)C(=O)NCC(=O)OCc1ccccc1` (centres unmarked) [Racecadotril], the Z-score rises from −0.6438 to 0.516.

Going from `CC(C)[N+](C)(CCOC(=O)C1c2ccccc2Oc2ccccc21)C(C)C` [Propantheline bromide] to `CNCCCC1c2ccccc2C=Cc2ccccc21` [Protriptyline hydrochloride], the Z-score rises from −0.9862 to −0.1298.

Compared with `CCCOc1ccc(C(=O)OCCN(CC)CC)cc1N` [Proparacaine hydrochloride], `CCCOc1cc(N)ccc1C(=O)OCCN(CC)CC` [Propoxycaine hydrochloride] is lower in Z-score: 0.9367 for the first, −0.3049 for the second.

Compared with `CC[N+](C)(CC)CCC[n+]1c(-c2ccccc2)c2cc(N)ccc2c2ccc(N)cc21.[I-].[I-]` [Propidium iodide], `CCN(CC)CCCC(C)Nc1c2ccc(Cl)cc2nc2ccc(OC)cc12` (centres unmarked) [Quinacrine dihydrochloride dihydrate] is lower in Z-score: 4.014 for the first, 0.141 for the second.

Going from `CCCc1cc(=O)[nH]c(=S)[nH]1` [Propylthiouracil] to `CCC1(CC)C(=O)C=CNC1=O` [Pyrithyldione], the Z-score rises from −0.0857 to 0.5042.

Going from `C[C@@H]1O[C@@H](O[C@@H]2C=C3CC[C@@H]4[C@H](CC[C@]5(C)[C@@H](c6ccc(=O)oc6)CC[C@]45O)[C@@]3(C)CC2)[C@H](O)[C@H](O)[C@H]1O` [Proscillaridin A] to `CCC(=O)[C@@]1(C)[C@H](C)C[C@H]2[C@@H]3CCC4=CC(=O)C=C[C@]4(C)[C@H]3[C@@H](O)C[C@@]21C` [Rimexolone], the Z-score rises from −1.0698 to −0.4134.

Compared with `CC[C@@H](C)C(=O)O[C@H]1[C@H](O)[C@H]2[C@@H](CN3C[C@@H](C)CC[C@H]3[C@@]2(C)O)[C@@H]2C[C@]34O[C@]5(O)[C@@H](OC(=O)[C@@](C)(O)CC)CC[C@@]3(C)[C@@H]5[C@@H](OC(C)=O)[C@@H](OC(C)=O)[C@H]4[C@@]21O` [Protoveratrine A], `CC[C@H]1OC(=O)[C@H](C)[C@@H](O[C@H]2C[C@@](C)(OC)[C@@H](O)[C@H](C)O2)[C@H](C)[C@@H](O[C@@H]2O[C@H](C)C[C@H](N(C)C)[C@H]2O)[C@](C)(O)C[C@@H](C)/C(=N\OCOCCOC)[C@H](C)[C@@H](O)[C@]1(C)O` [Roxithromycin] is lower in Z-score: 1.895 for the first, −1.026 for the second.

Going from `CC(O)Cn1cnc2c1c(=O)n(C)c(=O)n2C` (centres unmarked) [Proxyphylline] to `Cn1c([N+](=O)[O-])cnc1COC(N)=O` [Ronidazole], the Z-score rises from −0.7317 to 1.5256.

Compared with `CN1[C@@H]2CCC[C@H]1CC(=O)C2.Cl` [Pseudopelletierine hydrochloride], `COc1ccc(C2CNC(=O)C2)cc1OC1CCCC1` (centres unmarked) [Rolipram] is lower in Z-score: 0.1911 for the first, −0.7794 for the second.

First: COc1ccc(C[C@H](N)C(=O)N[C@H]2[C@@H](O)[C@H](n3cnc4c(N(C)C)ncnc43)O[C@@H]2CO)cc1 [Puromycin dihydrochloride]
Second: COc1ccc(CN(CCN(C)C)c2ccccn2)cc1 [Pyrilamine maleate]
The Z-score of the first is higher: 74.4112 for the first, −1.3015 for the second.

First: NC(=O)c1cnccn1 [Pyrazinamide]
Second: NC(=O)c1ncn([C@@H]2O[C@H](CO)[C@@H](O)[C@H]2O)n1 [Ribavirin]
The Z-score of the first is higher: −1.0312 for the first, −1.5081 for the second.

Going from `Cc1ncc(CO)c(CO)c1O.Cl` [Pyridoxine hydrochloride] to `CC(C)(C)NCC(O)c1ccc(O)c(CO)c1` (centres unmarked) [Salbutamol], the Z-score falls from 1.366 to −0.9959.

Going from `CCc1nc(N)nc(N)c1-c1ccc(Cl)cc1` [Pyrimethamine] to `COc1cc2ccc(=O)oc2cc1O` [Scopoletin], the Z-score falls from 2.959 to 0.6027.

Compared with `O.O.O=c1c(O)c(-c2ccc(O)c(O)c2)oc2cc(O)cc(O)c12` [Quercetine dihydrate], `Oc1ccc(C=Cc2cc(O)cc(O)c2)cc1` [Resveratrol] is higher in Z-score: −0.8659 for the first, 11.669 for the second.

Compared with `CCC1NC(=O)c2cc(S(N)(=O)=O)c(Cl)cc2N1` (centres unmarked) [Quinethazone], `C[C@@H]1NCCc2cc(O)c(O)cc21` [Salsolinol hydrobromide] is higher in Z-score: −0.4993 for the first, 0.8772 for the second.

Going from `O=C(O)[C@]1(O)C[C@@H](O)[C@@H](O)[C@H](O)C1` [Quinic acid] to `NC[C@H]1O[C@H](O[C@H]2[C@H](O[C@@H]3O[C@H](CO)[C@@H](O)[C@H]3O)[C@@H](O)[C@H](N)C[C@@H]2N)[C@H](N)[C@@H](O)[C@@H]1O` [Ribostamycin sulfate salt], the Z-score falls from 1.0976 to −0.4737.

Compared with `C=C[C@H]1C[N@@]2CC[C@H]1C[C@@H]2[C@@H](O)c1ccnc2ccc(OC)cc12` [Quinidine hydrochloride monohydrate], `COc1ccc2c3c([nH]c2c1)[C@H]1C[C@H]2[C@H](C[C@@H](O)[C@H](OC)[C@H]2C(=O)O)CN1CC3.Cl` [Reserpinic acid hydrochloride] is lower in Z-score: 6.798 for the first, −1.3417 for the second.

Going from `O=C(c1ccc(OCCN2CCCCC2)cc1)c1c(-c2ccc(O)cc2)sc2cc(O)ccc12` [Raloxifene hydrochloride] to `CCOc1cc(CC(=O)N[C@@H](CC(C)C)c2ccccc2N2CCCCC2)ccc1C(=O)O` [Repaglinide], the Z-score rises from −0.8574 to −0.2231.

First: CNC(=C[N+](=O)[O-])NCCSCc1ccc(CN(C)C)o1 [Ranitidine hydrochloride]
Second: CCN1CCC[C@H]1CNC(=O)c1c(OC)ccc(Br)c1OC [Remoxipride Hydrochloride]
The Z-score of the first is lower: −0.5642 for the first, −0.4559 for the second.

Compared with `COC(=O)[C@H]1[C@H]2C[C@H]3c4[nH]c5ccccc5c4CCN3C[C@H]2CC[C@@H]1O` [Rauwolscine hydrochloride], `COC(=O)[C@H]1[C@H]2C[C@@H]3c4[nH]c5cc(OC)ccc5c4CCN3C[C@H]2C[C@@H](OC(=O)c2cc(OC)c(OC)c(OC)c2)[C@@H]1OC` [Reserpine] is higher in Z-score: −0.7161 for the first, −0.083 for the second.

Going from `COC(=O)[C@H]1[C@H]2C[C@@H]3c4[nH]c5cc(OC)ccc5c4CCN3C[C@H]2C[C@@H](OC(=O)/C=C/c2cc(OC)c(OC)c(OC)c2)[C@@H]1OC` [Rescinnamin] to `COc1cc2c(cc1O)[C@@H]1Cc3ccc(OC)c(O)c3CN1CC2` [Scoulerine], the Z-score rises from 1.097 to 19.9884.

Compared with `CC1=C(/C=C/C(C)=C/C=C/C(C)=C/C(=O)O)C(C)(C)CCC1` [Retinoic acid], `CCN(CC)C(=O)N[C@H]1C[C@@H]2c3cccc4[nH]cc(c34)C[C@H]2N(C)C1.O=C(O)/C=C\C(=O)O` [S(−)-terguride hydrogen maleate] is lower in Z-score: −0.7042 for the first, −1.0498 for the second.

Going from `Cc1cc2nc3c(=O)[nH]c(=O)nc-3n(C[C@H](O)[C@H](O)[C@H](O)CO)c2cc1C` [Riboflavine] to `Cc1nc2n(c(=O)c1CCN1CCC(c3noc4cc(F)ccc34)CC1)CCCC2` [Risperidone], the Z-score falls from 0.1165 to −0.0533.

Compared with `COc1ccn(C)c(=O)c1C#N` [Ricinine], `O=[N+]([O-])c1cc([As](=O)(O)O)ccc1O` [Roxarsone] is higher in Z-score: −1.4299 for the first, −0.5936 for the second.

Going from `CO[C@H]1/C=C/O[C@@]2(C)Oc3c(C)c(O)c4c(c3C2=O)C2=NC3(CCN(CC(C)C)CC3)NC2=C(NC(=O)/C(C)=C\C=C\[C@H](C)[C@H](O)[C@@H](C)[C@@H](O)[C@@H](C)[C@H](OC(C)=O)[C@@H]1C)C4=O` [Rifabutin] to `CO[C@H]1/C=C/O[C@@]2(C)Oc3c(C)c(O)c4c(O)c(c(/C=N/N5CCN(C)CC5)c(O)c4c3C2=O)NC(=O)/C(C)=C\C=C\[C@H](C)[C@H](O)[C@@H](C)[C@@H](O)[C@@H](C)[C@H](OC(C)=O)[C@@H]1C` [Rifampicin], the Z-score falls from 1.521 to −0.5227.

First: C1COC(NC(C2CC2)C2CC2)=N1 [Rilmenidine hemifumarate]
Second: O=C1C=C2C=C[C@@H]3C[C@@]2(O1)[C@H]1CCCCN31 [Securinine]
The Z-score of the first is lower: −1.0936 for the first, −0.5036 for the second.

Compared with `CC(NCCc1ccc(O)cc1)C(O)c1ccc(O)cc1` (centres unmarked) [Ritodrine hydrochloride], `OCc1cc(C(O)CNCCCCCCOCCCCc2ccccc2)ccc1O` (centres unmarked) [Salmeterol] is higher in Z-score: 0.3787 for the first, 0.4502 for the second.

First: CN(C)[C@@H]1C(O)=C(C(=O)NCN2CCCC2)C(=O)[C@@]2(O)C(O)=C3C(=O)c4c(O)cccc4[C@@](C)(O)[C@H]3C[C@@H]12 [Rolitetracycline]
Second: C=C1C/C(=C/C)C(=O)O[C@@H]2CCN3CC=C(COC(=O)[C@]1(C)O)[C@H]23 [Seneciphylline]
The Z-score of the first is higher: −0.3523 for the first, −1.7519 for the second.

Going from `c1ccc2c(c1)CCCc1cc(NCCN3CCOCC3)nnc1-2` [SR-95639A] to `CC(C)(C)NC(=O)[C@@H]1C[C@@H]2CCCC[C@@H]2CN1C[C@@H](O)[C@H](Cc1ccccc1)NC(=O)[C@H](CC(N)=O)NC(=O)c1ccc2ccccc2n1` [Saquinavir mesylate], the Z-score rises from −0.7703 to 1.027.

Going from `C[n+]1cc2c3c(ccc2c2ccc4cc5c(cc4c21)OCO5)OCO3` [Sanguinarine] to `C#CCN(C)[C@H](C)Cc1ccccc1` [Selegiline hydrochloride], the Z-score falls from 31.0936 to 2.279.

Going from `Br.C[N+]1([O-])[C@@H]2CC(OC(=O)[C@H](CO)c3ccccc3)C[C@H]1[C@@H]1O[C@@H]12` (some centres unmarked) [Scopolamin-N-oxide hydrobromide] to `CN1[C@@H]2C[C@@H](OC(=O)[C@H](CO)c3ccccc3)C[C@H]1[C@@H]1O[C@@H]12` [Scopolamine hydrochloride], the Z-score falls from 0.9998 to 0.9672.
